US11725036B2, “Modified lipidated relaxin B chain peptides and their therapeutic use” (Sanofi, priority 2018, dated 2023)
Starred links: 1 amine or outer side, 2 acyl side, 3 side chain; linkers in the order of their positions; H or OH if unused. Non-standard residues stand in square brackets, D forms with d. Residues, ends and D or L forms follow the SMILES beside them. Groups on a side chain read outwards from the residue. *: point of attachment. X10 = CCCCCCCCCCCCCC(=O)N[C@@H](CCC(=O)N[C@@H](CCC(=O)N[C@@H](CCC(=O)N[C@@H](CCC(=O)NCCCOCCOCCOCCCNC(=O)CCC(=O)NCCCOCCOCCOCCCNC(=O)CCC(=O)NCCCOCCOCCOCCCN*)C(=O)O)C(=O)O)C(=O)O)C(=O)O; X1 = CCCCCCCCCCCCCCCC(=O)N[C@@H](CCC(=O)N[C@@H](CCC(=O)N[C@@H](CCC(=O)NCCCOCCOCCOCCCNC(=O)CCC(=O)NCCCOCCOCCOCCCNC(=O)CCC(=O)NCCCOCCOCCOCCCN*)C(=O)O)C(=O)O)C(=O)O; Cit = NC(=O)NCCC[C@H](N)C(=O)O; Suc = O=C(CCC(=O)[*:2])[*:1]; αMeK = C[C@](N)(CCCCN)C(=O)O; hLys = NCCCCC[C@H](N)C(=O)O; Aib = CC(C)(N)C(=O)O

Biological target: T1, RXFP1 (Homo sapiens, UniProt Q9HBX9)
T1 construct: OVCAR5 cells expressing endogenous RXFP1; endogenous in cells; host or cells: OVCAR5
T1 sequence (Q9HBX9 1-757): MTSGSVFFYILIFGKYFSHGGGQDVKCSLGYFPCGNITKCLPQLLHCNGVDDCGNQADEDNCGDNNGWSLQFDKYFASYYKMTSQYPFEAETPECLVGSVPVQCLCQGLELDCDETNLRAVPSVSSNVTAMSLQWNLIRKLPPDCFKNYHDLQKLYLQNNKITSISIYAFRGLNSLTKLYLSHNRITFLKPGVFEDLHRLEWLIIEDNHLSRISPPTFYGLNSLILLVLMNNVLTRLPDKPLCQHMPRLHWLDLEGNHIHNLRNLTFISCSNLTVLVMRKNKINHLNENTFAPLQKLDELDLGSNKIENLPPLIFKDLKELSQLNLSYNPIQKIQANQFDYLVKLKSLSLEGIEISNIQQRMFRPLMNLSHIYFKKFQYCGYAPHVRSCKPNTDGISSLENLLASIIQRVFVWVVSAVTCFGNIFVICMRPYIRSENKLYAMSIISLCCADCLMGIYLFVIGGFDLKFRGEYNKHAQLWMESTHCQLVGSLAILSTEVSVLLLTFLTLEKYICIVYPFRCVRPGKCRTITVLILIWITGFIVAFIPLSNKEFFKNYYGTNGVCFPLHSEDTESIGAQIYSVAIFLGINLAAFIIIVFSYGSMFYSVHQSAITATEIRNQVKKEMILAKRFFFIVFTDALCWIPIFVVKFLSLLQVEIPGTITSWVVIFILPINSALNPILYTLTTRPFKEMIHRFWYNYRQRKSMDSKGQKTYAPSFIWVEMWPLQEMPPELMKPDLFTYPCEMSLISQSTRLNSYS
Experiment: OVCAR5 cAMP assay (HTRF)
Format: cell-based
Conditions: for EC50: OVCAR 5 cells expressing endogenous RXFP1, cAMP readout; for Emax: OVCAR 5 cells, maximal cAMP relative to H2-relaxin
Procedure, shortened: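 Peptide agonism measured as intracellular cAMP (HTRF) after 30 min at 37° C in serum-free medium, following 40 min 1 mM IBMX preincubation of OVCAR5 cells. Nonlinear regression gave EC50; Emax % = 100 × compound maximal cAMP / H2-relaxin maximal cAMP.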

SMILES	EC50	Emax
CCCCCCCCCCCCCC(=O)N[C@@H](CCC(=O)N[C@@H](CCC(=O)N[C@@H](CCC(=O)N[C@@H](CCC(=O)NCCCOCCOCCOCCCNC(=O)CCC(=O)NCCCOCCOCCOCCCNC(=O)CCC(=O)NCCCOCCOCCOCCCNC(=O)CCC(=O)NCCCC[C@H](NC(=O)CNC(=O)[C@H](CCC(=O)O)NC(=O)C(C)(C)NC(=O)C(C)(C)NC(=O)[C@@H](NC(=O)[C@H](CCCCNC(C)=O)NC(=O)[C@H](C)NC(=O)[C@H](CCCNC(=N)N)NC(=O)[C@@H](NC(=O)[C@H](CCCCN)NC(=O)[C@H](CCC(=O)O)NC(=O)[C@H](CCCNC(=N)N)NC(=O)CNC(=O)[C@H](CCC(=O)O)NC(=O)[C@H](CC(C)C)NC(C)=O)C(C)C)[C@@H](C)CC)C(=O)N[C@@H](CO)C(=O)N[C@H](C(=O)N[C@@H](Cc1ccccc1)C(=O)N[C@@H](CO)C(=O)N[C@@](C)(CCCCN)C(=O)N[C@@H](CCCNC(=N)N)C(=O)N[C@@H](C)C(=O)N[C@@H](CCCCN)C(N)=O)[C@@H](C)O)C(=O)O)C(=O)O)C(=O)O)C(=O)O [compound 97] (Ac-LEGREKVRAK(Ac)I[Aib][Aib]EGK([Suc-X10])STFS[αMeK]RAK-NH2)	0.29 nM	98%
CCCCCCCCCCCCCCCC(=O)N[C@@H](CCC(=O)N[C@@H](CCC(=O)N[C@@H](CCC(=O)NCCCOCCOCCOCCCNC(=O)CCC(=O)NCCCOCCOCCOCCCNC(=O)CCC(=O)NCCCOCCOCCOCCCNC(=O)CCC(=O)NCCCC[C@H](NC(=O)CNC(=O)[C@H](CCC(=O)O)NC(=O)[C@@H](NC(=O)C(C)(C)NC(=O)[C@@H](NC(=O)[C@H](CCCCNC(C)=O)NC(=O)[C@H](C)NC(=O)[C@H](CCCNC(=N)N)NC(=O)[C@@H](NC(=O)[C@H](CCCCN)NC(=O)[C@H](CCC(=O)O)NC(=O)[C@H](CCCNC(=N)N)NC(=O)CNC(=O)[C@H](CCC(=O)O)NC(=O)C(C)(C)NC(C)=O)C(C)C)[C@@H](C)CC)[C@@H](C)CC)C(=O)N[C@@H](CO)C(=O)N[C@H](C(=O)N[C@@H](Cc1ccccc1)C(=O)N[C@@H](CO)C(=O)N[C@@](C)(CCCCN)C(=O)N[C@@H](CCCNC(=N)N)C(=O)N[C@@H](C)C(=O)N[C@@H](CCCCNC(C)=O)C(N)=O)[C@@H](C)O)C(=O)O)C(=O)O)C(=O)O [compound 86] (Ac-[Aib]EGREKVRAK(Ac)I[Aib]IEGK([Suc-X1])STFS[αMeK]RAK(Ac)-NH2)	0.3 nM	95%
CCCCCCCCCCCCCCCC(=O)N[C@@H](CCC(=O)N[C@@H](CCC(=O)N[C@@H](CCC(=O)NCCCOCCOCCOCCCNC(=O)CCC(=O)NCCCOCCOCCOCCCNC(=O)CCC(=O)NCCCOCCOCCOCCCNC(=O)CCC(=O)NCCCC[C@H](NC(=O)CNC(=O)[C@H](CCC(=O)O)NC(=O)C(C)(C)NC(=O)C(C)(C)NC(=O)[C@@H](NC(=O)[C@H](CCCNC(N)=O)NC(=O)[C@H](C)NC(=O)[C@H](CCCNC(=N)N)NC(=O)[C@@H](NC(=O)[C@H](CCCCN)NC(=O)[C@H](CCC(=O)O)NC(=O)[C@H](CCCNC(=N)N)NC(=O)CNC(=O)[C@H](CCC(=O)O)NC(=O)[C@H](CC(C)C)NC(C)=O)C(C)C)[C@@H](C)CC)C(=O)N[C@@H](CO)C(=O)N[C@H](C(=O)N[C@@H](Cc1ccccc1)C(=O)N[C@@H](CO)C(=O)N[C@@](C)(CCCCN)C(=O)N[C@@H](CCCNC(=N)N)C(=O)N[C@@H](C)C(=O)N[C@@H](CCCCNC(C)=O)C(N)=O)[C@@H](C)O)C(=O)O)C(=O)O)C(=O)O [compound 12] (Ac-LEGREKVRA[Cit]I[Aib][Aib]EGK([Suc-X1])STFS[αMeK]RAK(Ac)-NH2)	0.93 nM	90%
CCCCCCCCCCCCCCCC(=O)N[C@@H](CCC(=O)N[C@@H](CCC(=O)N[C@@H](CCC(=O)NCCCOCCOCCOCCCNC(=O)CCC(=O)NCCCOCCOCCOCCCNC(=O)CCC(=O)NCCCOCCOCCOCCCNC(=O)CCC(=O)NCCCC[C@H](NC(=O)CNC(=O)[C@H](CCC(=O)O)NC(=O)C(C)(C)NC(=O)C(C)(C)NC(=O)[C@@H](NC(=O)[C@H](CCC(N)=O)NC(=O)[C@H](CCCCNC(C)=O)NC(=O)[C@H](CCCNC(=N)N)NC(=O)[C@@H](NC(=O)[C@H](CCCCN)NC(=O)[C@H](CCC(=O)O)NC(=O)[C@H](CCCNC(=N)N)NC(=O)CNC(=O)[C@H](CCC(=O)O)NC(=O)[C@H](CC(C)C)NC(C)=O)C(C)C)[C@@H](C)CC)C(=O)N[C@@H](CO)C(=O)N[C@H](C(=O)N[C@@H](Cc1c[nH]c2ccccc12)C(=O)N[C@@H](CO)C(=O)NC(C)(C)C(=O)N[C@@H](CCCNC(=N)N)C(=O)N[C@@H](CCCCN)C(=O)N[C@@H](CCCCNC(C)=O)C(N)=O)[C@@H](C)O)C(=O)O)C(=O)O)C(=O)O [compound 65] (Ac-LEGREKVRK(Ac)QI[Aib][Aib]EGK([Suc-X1])STWS[Aib]RKK(Ac)-NH2)	1.19 nM	95%
CCCCCCCCCCCCCCCC(=O)N[C@@H](CCC(=O)N[C@@H](CCC(=O)N[C@@H](CCC(=O)NCCCOCCOCCOCCCNC(=O)CCC(=O)NCCCOCCOCCOCCCNC(=O)CCC(=O)NCCCOCCOCCOCCCNC(=O)CCC(=O)NCCCC[C@H](NC(=O)CNC(=O)[C@H](CCC(=O)O)NC(=O)C(C)(C)NC(=O)C(C)(C)NC(=O)[C@@H](NC(=O)[C@H](CCCCNC(C)=O)NC(=O)[C@H](C)NC(=O)[C@H](CCCNC(=N)N)NC(=O)[C@@H](NC(=O)[C@H](CCCCN)NC(=O)[C@H](CCC(=O)O)NC(=O)[C@H](CCCNC(=N)N)NC(=O)CNC(=O)[C@H](CCC(=O)O)NC(=O)[C@H](CC(C)C)NC(C)=O)C(C)C)[C@@H](C)CC)C(=O)N[C@@H](CO)C(=O)N[C@@H](CCCCN)C(=O)N[C@@H](Cc1c[nH]c2ccccc12)C(=O)N[C@@H](CO)C(=O)NC(C)(C)C(=O)N[C@@H](CCCNC(=N)N)C(=O)N[C@@H](C)C(=O)N[C@@H](CCCCN)C(N)=O)C(=O)O)C(=O)O)C(=O)O [compound 73] (Ac-LEGREKVRAK(Ac)I[Aib][Aib]EGK([Suc-X1])SKWS[Aib]RAK-NH2)	0.2 nM	95%
CCCCCCCCCCCCCCCC(=O)N[C@@H](CCC(=O)N[C@@H](CCC(=O)N[C@@H](CCC(=O)NCCCOCCOCCOCCCNC(=O)CCC(=O)NCCCOCCOCCOCCCNC(=O)CCC(=O)NCCCOCCOCCOCCCNC(=O)CCC(=O)NCCCC[C@H](NC(=O)CNC(=O)[C@H](CCC(=O)O)NC(=O)C(C)(C)NC(=O)C(C)(C)NC(=O)[C@@H](NC(=O)[C@H](CCCCN)NC(=O)[C@H](C)NC(=O)[C@H](CCCNC(=N)N)NC(=O)[C@@H](NC(=O)[C@H](CCCCN)NC(=O)[C@H](CCC(=O)O)NC(=O)[C@H](CCCNC(=N)N)NC(=O)CNC(=O)[C@H](CCC(=O)O)NC(=O)[C@H](CC(C)C)NC(C)=O)C(C)C)[C@@H](C)CC)C(=O)N[C@@H](CO)C(=O)N[C@H](C(=O)N[C@@H](Cc1ccccc1)C(=O)N[C@@H](CO)C(=O)N[C@@](C)(CCCCN)C(=O)N[C@@H](CCCNC(=N)N)C(=O)N[C@@H](C)C(=O)N[C@@H](CCCCNC(C)=O)C(N)=O)[C@@H](C)O)C(=O)O)C(=O)O)C(=O)O [compound 47] (Ac-LEGREKVRAKI[Aib][Aib]EGK([Suc-X1])STFS[αMeK]RAK(Ac)-NH2)	0.64 nM	95%
CCCCCCCCCCCCCCCC(=O)N[C@@H](CCC(=O)N[C@@H](CCC(=O)N[C@@H](CCC(=O)NCCCOCCOCCOCCCNC(=O)CCC(=O)NCCCOCCOCCOCCCNC(=O)CCC(=O)NCCCOCCOCCOCCCNC(=O)CCC(=O)NCCCC[C@H](NC(=O)CNC(=O)[C@H](CCC(=O)O)NC(=O)C(C)(C)NC(=O)C(C)(C)NC(=O)[C@@H](NC(=O)[C@H](CCCCNC(C)=O)NC(=O)[C@H](C)NC(=O)[C@H](CCCNC(=N)N)NC(=O)[C@@H](NC(=O)[C@H](CCCCN)NC(=O)[C@H](CCC(=O)O)NC(=O)[C@H](CCCNC(=N)N)NC(=O)CNC(=O)[C@H](CCC(=O)O)NC(=O)[C@H](CC(C)C)NC(C)=O)C(C)C)[C@@H](C)CC)C(=O)N[C@@H](CO)C(=O)N[C@H](C(=O)N[C@@H](Cc1ccccc1)C(=O)N[C@@H](CO)C(=O)N[C@@H](CCCCCN)C(=O)N[C@@H](CCCNC(=N)N)C(=O)N[C@@H](C)C(=O)N[C@@H](CCCCNC(C)=O)C(N)=O)[C@@H](C)O)C(=O)O)C(=O)O)C(=O)O [compound 88] (Ac-LEGREKVRAK(Ac)I[Aib][Aib]EGK([Suc-X1])STFS[hLys]RAK(Ac)-NH2)	0.17 nM	96%
